Patent US6476025B1, “Phenylphennanthridines with PDE-IV inhibiting activity” (Altana Pharma AG, priority 1999, dated 2002)

Assays:
PDE4 = test: Inhibition of PDE4 activity (method of Bauer and Schwabe, adapted to microtiter plates); format: biochemical; conditions: inhibitory concentration as −log IC50 (mol/l)
Method: The activity test was carried out according to the method of Bauer and Schwabe, which was adapted to microtiter plates (Naunyn-Schmiedeberg's Arch. Pharmacol. 1980, 311, 193-198). The PDE reaction takes place in the first step here. In a second step, the resulting 5′-nucleotide is cleaved by a 5′-nucleotidase of the snake venom of Crotalus atrox to the uncharged nucleoside. In the third step, the nucleoside is separated from the remaining charged substrate on ion-exchange columns. The columns are eluted directly into minivials, into which 2 ml of scintillator fluid are additionally added, for counting using 2 ml of 30 mM ammonium formate (pH 6.0).
The inhibitory values determined for the compounds according to the invention [inhibitory concentration as −log Ic50 (mol/l)] follow from the following Table A, in which the numbers of the compounds correspond to the numbers of the examples.

Row | melting point [°C] | SMILES | −log IC50, inhibition of the PDE4 activity (PDE4)
1 | 151 to 153 | CCOc1cc2c(cc1OC)C(c1ccc(CCl)cc1)=N[C@H]1CCCC[C@@H]21 (relative stereo) [Compound 19, cis-6-(4-Chloromethylphenyl)-9-ethoxy-8-methoxy-1,2,3,4,4a,10b-hexahydrophenanthridine] | 8.59
2 | 182 to 185 | COc1cc2c(cc1OC)C1CCCCC1N=C2c1cccc(C(=O)N2CCCCC2)c1 (single isomer, unassigned; (-)) [Compound 17, (−)-cis-8,9-Dimethoxy-[3-(piperidin-1-ylcarbonyl)phenyl]-1,2,3,4,4a,10b-hexahydrophenanthridine] | 8.13
3 | 102 to 105 | CCOc1cc2c(cc1OC)C(c1ccc(OCC)c(OCC3CC3)c1)=NC1CCCCC21 (single isomer, unassigned; (-)) [Compound 39, (−)-cis-9-Ethoxy-8-methoxy-6-[(3-cyclopropylmethoxy-4-ethoxy)phenyl]-1,2,3,4,4a,10b-hexahydrophenanthridine] | 8.87
4 | 168 to 177 | COc1cc2c(cc1OC)C1CCCCC1N=C2c1ccc(OC)c(N2C(=O)CCC2=O)c1 (single isomer, unassigned; (-)) [Compound 48, (−)-cis-8,9-Dimethoxy-6-{[3-(2,5-dioxopyrrolidin-1-yl)-4-methoxy]phenyl}-1,2,3,4,4a,10b-hexahydrophenanthridine] | 7.67
5 | 110 to 115 | COc1cc2c(cc1OC)[C@@H]1CCCC[C@@H]1N=C2c1ccc(Oc2ccccc2)cc1 [Compound 4, (−)-cis-8,9-Dimethoxy-6-(4-phenoxyphenyl)-1,2,3,4,4a,10b-hexahydrophenanthridine] | 7.52
6 | 118 to 120 | COc1cc2c(cc1OC)[C@@H]1CCCC[C@@H]1N=C2c1cccc(OCc2ccccc2)c1 [Compound 7, (−)-cis-8,9-Dimethoxy-6-(3-benzyloxyphenyl)-1,2,3,4,4a,10b-hexahydrophenanthridine] | 8.40
7 | 124 to 125 | COC(=O)Cc1ccc(C2=N[C@H]3CCCC[C@H]3c3cc(OC)c(OC)cc32)cc1 [Compound 18, (−)-cis-8,9-Dimethoxy-6-(4-methoxycarbonylmethylphenyl)-1,2,3,4,4a,10b-hexahydrophenanthridine] | 7.49
8 | 114 to 117 | COc1cc2c(cc1OC)[C@@H]1CCCC[C@@H]1N=C2c1ccc(C(=O)CC(C)C)cc1 [Compound 23, (−)-cis-8,9-Dimethoxy-6-[4-(3-methylbutyryl)phenyl]-1,2,3,4,4a,10b-hexahydrophenanthridine] | 7.5
9 | 93 to 98 | COc1cc2c(cc1OC)[C@@H]1CCCC[C@@H]1N=C2c1ccc(C(=O)CC2CC2)cc1 [Compound 24, (−)-cis-8,9-Dimethoxy-6-[4-cyclopropylmethylcarbonylphenyl]-1,2,3,4,4a,10b-hexahydrophenanthridine] | 7.48
10 |  | COc1cc2c(cc1OC)[C@@H]1CCCC[C@@H]1N=C2c1cc(OCC2CC2)cc(OCC2CC2)c1 [Compound 41, (−)-cis8,9-Dimethoxy-6-[3,5-bis(cyclopropylmethoxy)phenyl]-1,2,3,4,4a,10b-hexahydrophenanthridine] | 8.03
11 |  | COc1cc2c(cc1OC)[C@@H]1CCCC[C@@H]1N=C2c1ccc(OC(F)F)c(OCC2CC2)c1 [Compound 42, (−)-cis-8,9-Dimethoxy-6-(3-cyclopropylmethoxy-4-difluoromethoxyphenyl)-1,2,3,4,4a,10b-hexahydrophenanthridine] | 7.43
12 |  | CCC(=O)c1ccc(C2=N[C@H]3CCCC[C@H]3c3cc(OC)c(OC)cc32)cc1 [Compound 50, (−)-cis-8,9-Dimethoxy-6-[4-propionylphenyl]-1,2,3,4,4a,10b-hexahydrophenanthridine] | 7.98
